± gives the expanded uncertainty stated by the source.

The values below come from the NIST ThermoML archive (doi:10.1016/j.fluid.2016.01.035).

For data set [1] the following is noted: for vapor or sublimation pressure: Liquid, Transpiration method.
A short description of data set [2]: Molar enthalpy of transition or fusion. The settings on record: Crystal; DSC.
The nature of data set [3]: molar enthalpy of vaporization or sublimation. The settings on record: 298.15 K; Crystal; TGA.

Turning to `COc1cc(C=CC(=O)O)ccc1O` [4-hydroxy-3-methoxycinnamic acid], the Normal melting temperature in data set [1] (Crystal, DTA) amounted to 172.8 ± 0.5 °C. For the same compound, the “Molar enthalpy of transition or fusion” value in data set [2] was 8.29 ± 0.191 kcal/mol. In data set [3], the molar enthalpy turned out to be 32.4 ± 0.478 kcal/mol.

As to `COC(=O)C=Cc1ccc(O)c(OC)c1` [methyl 3-(4-hydroxy-3-methoxyphenyl)-2-propenoate], the “vapor or sublimation pressure” value was found to be 9.7e-05 ± 4e-06 kPa in data set [1] (340.2 K); 0.000128 ± 6e-06 kPa in data set [1] (343.2 K); 0.00021 ± 9e-06 kPa in data set [1] (348.2 K); 0.000324 ± 1.4e-05 kPa in data set [1] (353.1 K); 0.000513 ± 2.2e-05 kPa in data set [1] (358.2 K); 0.000769 ± 3.3e-05 kPa in data set [1] (363.2 K). In addition, the “vapor or sublimation pressure” value was found to be 0.00117 ± 5e-05 kPa in data set [1] (368.1 K), 0.0014 ± 6e-05 kPa in data set [1] (370.2 K), 0.00179 ± 8e-05 kPa in data set [1] (373.2 K) and 0.00229 ± 0.0001 kPa in data set [1] (376.2 K). For the same compound, in data set [2], the “Molar enthalpy of transition or fusion” value is 5.62 ± 0.55 kcal/mol.

Usually vapor or sublimation pressure stands for the pressure of vapour in equilibrium with the condensed phase.
